Here are results for 21 compounds from ChEMBL document CHEMBL1156946, “Synthesis and SAR of derivatives based on 2-biarylethylimidazole as bombesin receptor subtype-3 (BRS-3) agonists for the treatment of obesity” (Bioorg Med Chem Lett, 2010).

Broadly, the IC50 is the point on the concentration scale where inhibition reaches its midpoint. A low value points to inhibition by little substance. In general, EC50 refers to the concentration that produces a half-maximal response. Low readings indicate an effect from little substance, high ones a need for much substance. One may read the Emax as the size of the effect at its maximum, as opposed to the concentration needed. The Kp is the ratio of the level in a tissue or fluid to that in plasma or blood.

The target in data set [1] is T1, Bombesin receptor subtype-3 (Homo sapiens, UniProt P32247).
T1 sequence (P32247 whole entry): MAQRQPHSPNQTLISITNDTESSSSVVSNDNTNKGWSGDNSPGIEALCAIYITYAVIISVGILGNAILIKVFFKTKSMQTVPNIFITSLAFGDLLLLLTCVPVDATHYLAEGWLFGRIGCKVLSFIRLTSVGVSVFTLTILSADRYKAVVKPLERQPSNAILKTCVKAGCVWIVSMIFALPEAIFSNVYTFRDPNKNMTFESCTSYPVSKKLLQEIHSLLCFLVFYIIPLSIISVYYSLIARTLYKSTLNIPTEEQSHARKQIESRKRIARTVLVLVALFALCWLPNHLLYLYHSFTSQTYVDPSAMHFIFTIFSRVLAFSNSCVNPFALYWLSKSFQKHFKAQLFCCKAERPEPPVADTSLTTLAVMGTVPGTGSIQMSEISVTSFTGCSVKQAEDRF
In words: biochemical. It counts as cell-based, CHO.
Description: Displacement of [125I]D-Tyr6-betaAla11-Phe13-Nle14-bombesin from human BRS-3 expressed in NFAT-CHO cells after 2 hrs by scintillation counting

For data set [2], the target named is T1, Bombesin receptor subtype-3. In words: Agonist activity at human BRS-3 expressed in HEK293 cells coexpressing AEQ over 10 mins by aequorin bioluminescence assay. Type of data set: functional, cell-based.
The target is the same in data set [3]. Put plainly: Agonist activity at human BRS-3 expressed in HEK293 cells coexpressing AEQ over 10 mins by aequorin bioluminescence assay relative to D-Tyr6-betaAla11-Phe13-Nle14-bombesin. It counts as functional, cell-based.
The target of data set [4] is T2, Bombesin receptor subtype-3 (Mus musculus, UniProt O54798).
T2 sequence (O54798 whole entry): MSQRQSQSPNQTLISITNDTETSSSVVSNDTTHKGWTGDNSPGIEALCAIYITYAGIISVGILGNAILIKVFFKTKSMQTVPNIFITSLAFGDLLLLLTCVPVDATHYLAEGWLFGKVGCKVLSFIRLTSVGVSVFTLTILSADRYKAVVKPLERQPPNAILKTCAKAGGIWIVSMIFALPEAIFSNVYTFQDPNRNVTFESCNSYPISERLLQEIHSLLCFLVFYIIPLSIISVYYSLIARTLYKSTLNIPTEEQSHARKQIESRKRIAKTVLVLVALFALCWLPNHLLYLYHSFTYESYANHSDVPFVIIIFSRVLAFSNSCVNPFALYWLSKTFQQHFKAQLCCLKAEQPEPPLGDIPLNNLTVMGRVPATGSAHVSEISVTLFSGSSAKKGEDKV
In words: Agonist activity at mouse BRS-3 expressed in HEK293 cells coexpressing AEQ over 10 mins by aequorin bioluminescence assay. It counts as functional, cell-based.

For data set [5], the target named is T2, Bombesin receptor subtype-3. Put plainly: Agonist activity at mouse BRS-3 expressed in HEK293 cells coexpressing AEQ over 10 mins by aequorin bioluminescence assay relative to D-Tyr6-betaAla11-Phe13-Nle14-bombesin. It counts as functional, cell-based.
Data set [6] in a line: Drug level in rat plasma at 1 mg/kg, iv after 1 hr. Type of data set: ADME, organism-based. More on the design: dose 1 mg/kg, route intravenous.
The nature of data set [7]: Drug level in rat brain at 1 mg/kg, iv after 1 hr. It counts as ADME, organism-based. The settings on record: read-out: Drug uptake. The arrangement: dose 1 mg/kg, route intravenous.
Data set [8] can be described thus: Ratio of drug level in rat brain to plasma at 1 mg/kg, iv after 1 hr. Type of data set: ADME, organism-based. The arrangement: dose 1 mg/kg, route intravenous.

In turn, `CCC(C)(C)Cc1cnc(CCc2ccc(-c3cnsc3)cc2)[nH]1` yielded a concentration for half-maximal inhibition (IC50) in data set [1] of 10 nM. Also, the EC50 in data set [2] amounted to 44 nM; in data set [4] it was 6.9 nM. Also, the Emax in data set [3] is 100%; in data set [5], 119%. The results for the concentration at 1 h in data set [6] and in data set [7] were 540 nM and 230 nM, respectively. Also, the concentration ratio (Kp) at 1 h in data set [8] stood at 0.42.
For `CCC(C)(C)Cc1c[nH]c(CCc2ccc(-c3ccns3)cc2)n1`, the IC50 in data set [1] came out at 11 nM. Also, the EC50 in data set [2] amounted to 63 nM; in data set [4], 3.1 nM. Moreover, the Emax was found to be 102% in data set [3] and 103% in data set [5].
With `CCC(C)(C)Cc1c[nH]c(CCc2ccc(-c3cccc(O)n3)cc2)n1`, the 50% inhibitory concentration (IC50) in data set [1] is 51 nM. Also, the values for the 50% effective concentration (EC50) in data set [2] and in data set [4] were 169 nM and 11 nM, respectively. The Emax in data set [3] amounted to 100%; in data set [5], 91%.
For the compound `CCC(C)(C)Cc1cnc(CCc2ccc(-c3ccc(F)cn3)cc2)[nH]1`, the IC50 in data set [1] is 19 nM. For the same compound, the concentration giving a half-maximal response (EC50) in data set [2] was determined as 66 nM; in data set [4] it was 16 nM. Also, the maximum response (Emax) in data set [3] was 97%; in data set [5] it was 105%.
In turn, `CCC(C)(C)Cc1cnc(CCc2ccc(-n3ccnn3)cc2)[nH]1` returned an IC50 in data set [1] of 390 nM. For the same compound, the concentration giving a half-maximal response (EC50) in data set [2] came out at 641 nM; in data set [4], 57 nM. The maximal effect (Emax) in data set [3] was found to be 93%; in data set [5], 111%.
In the case of `CCC(C)(C)Cc1cnc(CCc2ccc(N3CCCCC3)cc2)[nH]1`, in data set [1], half-maximal inhibition (IC50) was put at 28 nM. Also, the concentration for a half-maximal effect (EC50) stood at 171 nM in data set [2] and 28 nM in data set [4]. Moreover, the values for the maximal response (Emax) in data set [3] and in data set [5] were 108% and 133%, respectively.
The compound `CCC(C)(C)Cc1c[nH]c(CCc2ccc(-c3cnccn3)cc2)n1` came in with a half-inhibitory concentration (IC50) in data set [1] of 51 nM. Further, the EC50 in data set [2] was 431 nM; in data set [4], 11 nM. Moreover, the Emax amounted to 100% in data set [3] and 107% in data set [5].
`CCC(C)(C)Cc1c[nH]c(CCc2ccc(-c3ccccc3C(=O)O)cc2)n1` had an IC50 in data set [1] of 11 nM. In addition, the maximum response (Emax) is 101% in data set [3] and 94% in data set [5].
In data set [1], `CCC(C)(C)Cc1cnc(CCc2ccc(-n3cncn3)cc2)[nH]1` registered a concentration for half-maximal inhibition (IC50) of 340 nM. In addition, the half-maximal effective concentration (EC50) in data set [2] was found to be 570 nM; in data set [4], 12 nM. The maximum response (Emax) in data set [3] is 89%; in data set [5] it was 121%. For the same compound, the values for the concentration at 1 h in data set [6] and in data set [7] were 200 nM and 80 nM, respectively. The concentration ratio (Kp) at 1 h in data set [8] stood at 0.4.
For the compound `CCC(C)(C)Cc1c[nH]c(CCc2ccc(-n3cccn3)cc2)n1`, the concentration for a half-maximal effect (EC50) in data set [2] was determined as 135 nM; in data set [4], 9 nM. For the same compound, the Emax in data set [3] amounted to 106%; in data set [5], 113%. For the same compound, the concentration at 1 h in data set [6] stood at 30 nM; in data set [7], 20 nM. In addition, in data set [8], the Kp at 1 h is 0.67.
`O=C(O)c1cc(F)c(F)cc1-c1ccc(CCc2nc(CC3CCCCC3)c[nH]2)cc1` had an IC50 in data set [1] of 36 nM. Besides, the results for the EC50 in data set [2] and in data set [4] were 63 nM and 4.7 nM, respectively. The figures for the Emax in data set [3] and in data set [5] were 103% and 96%, respectively.
For the compound `CCC(C)(C)Cc1cnc(CCc2ccc(-c3csnn3)cc2)[nH]1`, half-maximal inhibition in data set [1] (IC50) was put at 45 nM. In addition, the figures for the half-maximal effective concentration (EC50) in data set [2] and in data set [4] were 538 nM and 11 nM, respectively. Moreover, the maximum response (Emax) is 104% in data set [3] and 109% in data set [5].
On the same counts, the results for `CCC(C)(C)Cc1cnc(CCc2ccc(-c3cccnc3C(=O)O)cc2)[nH]1` are 560 nM, 1260 nM, 14 nM, 95% and 97%.
Consider `c1ccc(-c2ccc(CCc3nc(CC4CCCC4)c[nH]3)cc2)nc1`, for which, in data set [1], half-maximal inhibition (IC50) was put at 177 nM. Further, the 50% effective concentration (EC50) in data set [2] came out at 425 nM; in data set [4], 22 nM. In addition, the maximum response (Emax) in data set [3] amounted to 98%; in data set [5], 103%. For the same compound, the concentration at 1 h in data set [6] stood at 39 nM; in data set [7], 30 nM. In addition, the partition ratio (Kp) at 1 h in data set [8] stood at 0.77.
In data set [1], `CCC(C)(C)Cc1cnc(CCc2ccc(-c3cccc(C#N)n3)cc2)[nH]1` returned an IC50 of 140 nM. For the same compound, the EC50 in data set [2] was found to be 193 nM; in data set [4], 26 nM. The Emax was determined as 95% in data set [3] and 115% in data set [5].
In turn, `CCC(C)(C)Cc1c[nH]c(CCc2ccc(-c3cccc(N)n3)cc2)n1` gave an IC50 in data set [1] of 7.3 nM. The concentration giving a half-maximal response (EC50) in data set [2] is 37 nM; in data set [4], 3.9 nM. The values for the Emax in data set [3] and in data set [5] were 97% and 119%, respectively.
Regarding `CCC(C)(C)Cc1c[nH]c(CCc2ccc(-c3cccc(C)n3)cc2)n1`, the values for the half-maximal effective concentration (EC50) in data set [2] and in data set [4] were 105 nM and 19 nM, respectively. For the same compound, the Emax in data set [3] was 102%; in data set [5] it was 106%.
Compound `CCC(C)(C)Cc1c[nH]c(CCc2ccc(-n3ncnn3)cc2)n1` displayed an IC50 in data set [1] of 205 nM. The EC50 in data set [2] was 422 nM; in data set [4] it was 25 nM. The figures for the Emax in data set [3] and in data set [5] were 89% and 99%, respectively.
Take `CCC(C)(C)Cc1c[nH]c(CCc2ccc(-c3cccc(C(=O)O)n3)cc2)n1`: the 50% inhibitory concentration (IC50) in data set [1] turned out to be 2820 nM. In addition, the EC50 in data set [2] stood at 5230 nM; in data set [4], 305 nM. Further, the figures for the Emax in data set [3] and in data set [5] were 15% and 90%, respectively.
For `CCC(C)(C)Cc1cnc(CCc2ccc(-c3cccnc3)cc2)[nH]1`, the half-maximal inhibitory concentration (IC50) in data set [1] worked out at 7.5 nM. For the same compound, the EC50 in data set [2] is 131 nM; in data set [4], 4.3 nM. Moreover, the maximum response (Emax) in data set [3] came out at 98%; in data set [5], 97%.
The like results for `CCC(C)(C)Cc1cnc(CCc2ccc(-c3ccncc3)cc2)[nH]1` were, in that order, 101 nM, 305 nM, 15 nM, 95% and 103%.
